This passage reports IC50 results from patent US20130217664A1, “NOVEL COMPOUNDS USEFUL FOR THE TREATMENT OF DEGENERATIVE AND INFLAMMATORY DISEASES” (priority 2012, published 2013).

The term pIC50 denotes the negative decadic logarithm of the IC50, by convention in mol/L.

Common to all, as to assay type: biochemical
One assay concerns the target T1, human JAK3 (Homo sapiens, UniProt P52333).
T1 construct: catalytic domain (amino acids 781-1124; catalog number PV3855); purchased Invitrogen PV3855
In words: JAK3 inhibition assay. Particulars: recombinant human JAK3 catalytic domain; polyGT substrate. How it is done: 1.3 JAK3 Inhibition Assay
0.5 ng JAK3 protein was incubated with 2.5 μg polyGT substrate (Sigma catalog number P0275) in kinase reaction buffer (25 mM Tris pH 7.5, 0.5 mM EGTA, 10 mM MgCl2, 2.5 mM DTT, 0.5 mM Na3VO4, 5 mM b-glycerolphosphate, 0.01% Triton X-100, 1 μM non-radioactive ATP, 0.25 μCi 33P-gamma-ATP (GE Healthcare, catalog number AH9968) final concentrations) with or without 5 μL containing test compound or vehicle (DMSO, 1% final concentration), in a total volume of 25 μL, in a polypropylene 96-well plate (Greiner, V-bottom). After 45 min at 30° C., reactions were stopped by adding 25 μL/well of 150 mM phosphoric acid. […] Plates were washed 6 times with 300 μL per well of a 75 mM phosphoric acid solution and the bottom of the plates was sealed. 40 μL/well of Microscint-20 was added, the top of the plates was sealed and readout was performed using the Topcount (Perkin Elmer). Kinase activity was calculated by subtracting counts per min (cpm) obtained in the presence of a positive control inhibitor (10 μM staurosporine) from cpm obtained in the presence of vehicle. The ability of a test compound to inhibit this activity was determined as:
(§1) Percentage inhibition=((cpm determined for sample with test compound present−cpm determined for sample with positive control inhibitor)divided by(cpm determined in the presence of vehicle−cpm determined for sample with positive control inhibitor))*100.
Dose dilution series were prepared for the compounds enabling the testing of dose-response effects in the JAK3 assay and the calculation of the IC50 for each compound. Each compound was routinely tested at concentration of 20 μM followed by a 1/5 serial dilution, 10 points in a final concentration of 1% DMSO.

The target in another assay is T2, human JAK1 (Homo sapiens, UniProt P23458).
T2 construct: catalytic domain, amino acids 866-1154; catalog number PV4774; purchased Invitrogen PV4774
T2 sequence (P23458 866-1154): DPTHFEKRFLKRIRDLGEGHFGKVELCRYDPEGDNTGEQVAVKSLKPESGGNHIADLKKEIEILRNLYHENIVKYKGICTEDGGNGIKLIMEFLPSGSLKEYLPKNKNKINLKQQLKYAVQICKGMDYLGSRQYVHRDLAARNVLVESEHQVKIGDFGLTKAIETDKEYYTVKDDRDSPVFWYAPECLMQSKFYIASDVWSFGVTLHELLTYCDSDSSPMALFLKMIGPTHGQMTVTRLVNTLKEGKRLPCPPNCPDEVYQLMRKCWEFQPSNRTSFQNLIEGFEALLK
In words: JAK1 inhibition assay (polyGT substrate / Ulight-JAK1 peptide). The conditions noted are these: recombinant human JAK1 catalytic domain; polyGT or Ulight-JAK1 peptide assay. The procedure:
1.1 JAK1 Inhibition Assay
1.1.1 JAK1 Assay polyGT Substrate
After 45 min at 30° C., reactions are stopped by adding of 25 μL/well of 150 mM phosphoric acid. […] Plates are washed 6 times with 300 μL per well of a 75 mM phosphoric acid solution and the bottom of the plates is sealed. 40 μL/well of Microscint-20 is added, the top of the plates is sealed and readout is performed using the Topcount (Perkin Elmer). Kinase activity is calculated by subtracting counts per min (cpm) obtained in the presence of a positive control inhibitor (10 μM staurosporine) from cpm obtained in the presence of vehicle. The ability of a test compound to inhibit this activity is determined as:
as §1
Dose dilution series are prepared for the compounds enabling the testing of dose-response effects in the JAK1 assay and the calculation of the IC50 for each compound.
1.1.2 JAK1 Ulight-JAK1 Peptide Assay
After 60 min at room temperature, reactions were stopped by adding 20 μL/well of detection mixture (1× detection buffer (Perkin Elmer, catalog number CR97-100C), 0.5 nM Europium-anti-phosphotyrosine (PT66) (Perkin Elmer, catalog number AD0068), 10 mM EDTA). […] Kinase activity was calculated by subtracting relative fluorescence units (RFU) obtained in the presence of a positive control inhibitor (10 μM staurosporine) from RFU obtained in the presence of vehicle. The ability of a test compound to inhibit this activity was determined as:
Percentage inhibition=((RFU determined for sample with test compound present−RFU determined for sample with positive control inhibitor)divided by(RFU determined in the presence of vehicle−RFU determined for sample with positive control inhibitor))*100.
Dose dilution series were prepared for the compounds enabling the testing of dose-response effects in the JAK1 assay and the calculation of the IC50 for the compound. Each compound is routinely tested at concentration of 20 μM followed by a 1/5 serial dilution, 10 points in a final concentration of 1% DMSO. […] The data are expressed as the average IC50 from the assays±standard error of the mean.

For a further assay, the target named is T3, human TYK2 (Homo sapiens, UniProt P29597).
T3 construct: catalytic domain (amino acids 871-1187; catalog number 08-147); purchased Carna Biosciences 08-147
T3 sequence (P29597 871-1187): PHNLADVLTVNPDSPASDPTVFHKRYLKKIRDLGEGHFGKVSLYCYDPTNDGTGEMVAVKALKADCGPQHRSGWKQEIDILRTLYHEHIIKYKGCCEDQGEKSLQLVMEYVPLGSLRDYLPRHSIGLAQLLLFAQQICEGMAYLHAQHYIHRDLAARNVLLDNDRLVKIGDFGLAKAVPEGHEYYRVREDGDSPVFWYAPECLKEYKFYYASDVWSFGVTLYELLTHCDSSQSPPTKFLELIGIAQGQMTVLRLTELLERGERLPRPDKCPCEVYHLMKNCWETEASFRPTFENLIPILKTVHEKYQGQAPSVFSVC
In words: TYK2 inhibition assay. Particulars: recombinant human TYK2 catalytic domain, polyGT substrate. The procedure:
1.4 TYK2 Inhibition Assay
After 90 min at 30° C., reactions were stopped by adding 25 μL/well of 150 mM phosphoric acid. […] Plates were washed 6 times with 300 μL per well of a 75 mM phosphoric acid solution and the bottom of the plates was sealed. 40 μL/well of Microscint-20 was added, the top of the plates was sealed and readout was performed using the Topcount (Perkin Elmer). Kinase activity was calculated by subtracting counts per min (cpm) obtained in the presence of a positive control inhibitor (10 μM staurosporine) from cpm obtained in the presence of vehicle. The ability of a test compound to inhibit this activity was determined as:
as §1
Dose dilution series were prepared for the compounds enabling the testing of dose-response effects in the TYK2 assay and the calculation of the IC50 for each compound.

pIC50: −log10 of the molar value. Some results are limits rather than exact numbers.

T1 sequence (P52333 781-1124): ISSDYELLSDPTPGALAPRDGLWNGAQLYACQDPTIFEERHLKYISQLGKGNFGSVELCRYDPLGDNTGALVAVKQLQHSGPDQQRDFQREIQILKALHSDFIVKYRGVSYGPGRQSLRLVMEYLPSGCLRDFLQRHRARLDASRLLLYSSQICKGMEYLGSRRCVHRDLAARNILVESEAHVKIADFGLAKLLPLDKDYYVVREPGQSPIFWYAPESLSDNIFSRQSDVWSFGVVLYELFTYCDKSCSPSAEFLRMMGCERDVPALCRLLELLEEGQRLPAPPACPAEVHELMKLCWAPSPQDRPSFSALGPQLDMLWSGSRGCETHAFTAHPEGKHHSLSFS

Take `CCc1cc(C(=O)NCC(C)(C)O)ccc1N(C)c1cc2c(cn1)ncn2C` [Compound 161, 3-ethyl-N-(2-hydroxy-2-methylpropyl)-4-(methyl(1-methyl-1H-imidazo[4,5-c]pyridin-6-yl)amino)benzamide]: the values for the negative-log IC50 (pIC50) on human JAK3, at human JAK1 and at human TYK2 were less than 6.00, 6.30 to 7.00 and less than 6.00, respectively.
For the compound `CCc1cc(CNC2CCNC2)ccc1N(C)c1cc2c(cn1)ncn2C` (centres unmarked) [Compound 293, [2-Ethyl-4-(pyrrolidin-3-ylaminomethyl)-phenyl]-methyl-(1-methyl-1H-imidazo[4,5-d]pyridin-6-yl)-amine], the pIC50 at human JAK3 was less than 6.00; on human JAK1 it was 7.00 to 11.00; at human TYK2, less than 6.00.
Regarding `CCc1cc(CN(C)S(=O)(=O)C2CC2)ccc1N(C)c1cc2c(cn1)ncn2C` [Compound 292, Cyclopropanesulfonic acid {3-ethyl-4-[methyl-(1-methyl-1H-imidazo[4,5-c]pyridin-6-yl)-amino]-benzyl}-methyl-amide], the pIC50 was 7.00 to 11.00 at human JAK3, 7.00 to 11.00 on human JAK1 and 6.30 to 7.00 on human TYK2.
Take `CCc1cc(C(=O)NC#N)ccc1N(C)c1cc2c(cn1)ncn2C` [Compound 179, N-Cyano-3-ethyl-4-(methyl(1-methyl-1H-imidazo[4,5-c]pyridin-6-yl)amino)benzamide]: the results for the negative-log IC50 (pIC50) on human JAK3, on human JAK1 and at human TYK2 were 6.30 to 7.00, 7.00 to 11.00 and 7.00 to 11.00, respectively.
Consider `CCc1cc(CN(C)S(=O)(=O)CC)ccc1N(C)c1cc2c(cn1)ncn2C` [Compound 294, Ethanesulfonic acid {3-ethyl-4-[methyl-(1-methyl-1H-imidazo[4,5-c]pyridin-6-yl)-amino]-benzyl}-methyl-amide], for which the negative-log IC50 (pIC50) on human JAK3, at human JAK1 and on human TYK2 was 7.00 to 11.00 each time.
For `CCc1cc(-c2ccc(C#N)cc2)ccc1N(C)c1cc2c(cn1)ncn2C` [Compound 162, 3′-ethyl-4′-(methyl(1-methyl-1H-imidazo[4,5-c]pyridin-6-yl)amino)biphenyl-4-carbonitrile], the negative logarithm of the IC50 (pIC50) on human JAK3 is 6.30 to 7.00; on human JAK1, 7.00 to 11.00; at human TYK2 it was 7.00 to 11.00.
As to `CCc1cc(-c2cccs2)ncc1N(C)c1cc2c(cn1)ncn2C` [Compound 289], the negative logarithm of the IC50 (pIC50) on human JAK3, on human JAK1 and at human TYK2 was 7.00 to 11.00 throughout.
Regarding `CCc1cc(-c2ccsc2)ncc1N(C)c1cc2c(cn1)ncn2C` [Compound 288, (4-Ethyl-6-thiophen-3-yl-pyridin-3-yl)-methyl-(1-methyl-1H-imidazo[4,5-c]pyridin-6-yl)-amine], the negative logarithm of the IC50 (pIC50) on human JAK3, on human JAK1 and on human TYK2 was 7.00 to 11.00 in each case.
Turning to `CCc1cc(O[C@H]2CCN(S(C)(=O)=O)C2)ccc1N(C)c1cc2c(cn1)ncn2C` [Compound 260, (S)-N-(2-ethyl-4-(1-(methylsulfonyl)pyrrolidin-3-yloxy)phenyl)-N,1-dimethyl-1H-imidazo[4,5-c]pyridin-6-amine], the negative-log IC50 (pIC50) was 6.30 to 7.00 on human JAK3, 7.00 to 11.00 on human JAK1 and 6.30 to 7.00 on human TYK2.
With `COc1cc(-c2cccs2)ncc1N(C)c1cc2c(cn1)ncn2C` [Compound 264], the figures for the negative-log IC50 (pIC50) at human JAK3, at human JAK1 and at human TYK2 were 6.30 to 7.00, 7.00 to 11.00 and 7.00 to 11.00, respectively.
`CCc1cc(-c2ccc(OC)nc2)ccc1N(C)c1cc2c(cn1)ncn2C` [Compound 130, N-(2-ethyl-4-(6-methoxypyridin-3-yl)phenyl)-N,1-dimethyl-1H-imidazo[4,5-c]pyridin-6-amine]: the negative-log IC50 (pIC50) is 6.30 to 7.00 at human JAK3, 7.00 to 11.00 on human JAK1 and 7.00 to 11.00 on human TYK2.
Turning to `CCc1cc(C2CN(S(C)(=O)=O)C2)ccc1N(C)c1cc2c(cn1)ncn2C` [Compound 290, [2-Ethyl-4-(1-methanesulfonyl-azetidin-3-yl)-phenyl]-methyl-(1-methyl-1H-imidazo[4,5-c]pyridin-6-yl)-amine], the negative-log IC50 (pIC50) at human JAK3, on human JAK1 and at human TYK2 was 7.00 to 11.00 in each case.
Regarding `CCc1cc(CNC2CCN(C(=O)OC(C)(C)C)C2)ccc1N(C)c1cc2c(cn1)ncn2C` (centres unmarked) [Compound 291, 3-{3-Ethyl-4-[methyl-(1-methyl-1H-imidazo[4,5-c]pyridin-6-yl)-amino]-benzylamino}-pyrrolidine-1-carboxylic acid tert-butyl ester], the pIC50 was less than 6.00 on human JAK3, 7.00 to 11.00 at human JAK1 and 6.30 to 7.00 at human TYK2.
The like results for `CCc1cc(C(=O)NC2(C#N)CCN(C)CC2)ccc1N(C)c1cc2c(cn1)ncn2C` [Compound 166, N-(4-cyano-1-methylpiperidin-4-yl)-3-ethyl-4-(methyl(1-methyl-1H-imidazo[4,5-c]pyridin-6-yl)amino)benzamide] were, in that order, less than 6.00, 7.00 to 11.00 and less than 6.00.
For `CCc1cc(C(=O)NCC2CCCCN2C)ccc1N(C)c1cc2c(cn1)ncn2C` (centres unmarked) [Compound 165, 3-ethyl-4-(methyl(1-methyl-1H-imidazo[4,5-c]pyridin-6-yl)amino)-N-((1-methylpiperidin-2-yl)methyl)benzamide], in that order: less than 6.00, 6.30 to 7.00 and less than 6.00.
Turning to `CCc1ccccc1N(C)c1cc2c(cn1)ncn2C` [Compound 16, (2-Ethyl-phenyl)-methyl-(1-methyl-1H-imidazo[4,5-c]pyridin-6-yl)-amine], the pIC50 on human JAK3 was 6.00 to 6.30; on human TYK2, 6.30 to 7.00.
